Test results reported in patent publication US11007271B2, “Anticancer drug conjugates” (Ariel Scientific Innovations Ltd., priority 2016, dated 2021).
“Also recorded” adds a separate entry of the source.

Assays:
[1] = Body weight monitoring, Experiment 1; assay type: in vivo, mice; settings: 25 mg group; IP daily for 7 days
Protocol: (§1) In one experiment (Experiment 1), 14 human melanoma model mice (immune-deficient xenograft) were treated daily for 7 days by IP injection with of Chimera 358 followed by 2 days of observation according to the following groups: 4 control mice treated with saline, 5 mice treated with 25 mg and 5 mice treated with 10 mg.
FIG. 6 presents the results of the body weight monitoring of 14 mice that undergone the treatment described in Experiment 1.

[2] = test system: MDA-MB 231 (human breast cancer); experiment: XTT cell growth assay, MDA-MB 231; assay type: cell-based; settings: MDA-MB 231 cells; 5 to 25 μM; 24 hours incubation (FIGS. 1E, 1F)
Protocol: (§2) The tumors cell lines used in this study included PC-3 (human prostate cancer), WM-266-4 cell (human metastatic melanoma), MDA-MB 231 (human breast cancer) and A172 (glioblastoma). […] The benign fibroblasts were tolerable to this conjugate, accentuating its potential as anticancer candidate. At the end of the culture period, cell growth was estimated by XTT assay. After 4 hours incubation of the cells with the XTT reagent, optical density (OD) of the reduced XTT product was then measured at 480 and 680 nm. Percentage of growth inhibition by a test compound was calculated by comparison of the treated culture versus a control culture (free of any compound). The result shown for each concentration point represents the mean+/−standard error calculated from 3 different experiments. In each experiment the compounds were tested in triplicates.

[3] = test system: WM-266-4 cell (human metastatic melanoma); experiment: XTT cell growth assay, WM-266-4; assay type: cell-based; settings: WM-266-4 cells; 5 to 25 μM; 24 and 48 hours incubation
Protocol: as §2

[4] = test system: primary fibroblast (FB) cells; experiment: Annexin V-FITC/PI flow cytometry detection of apoptotic/necrotic stages, fibroblasts; assay type: cell-based; settings: 10 μM, compared to cancer cells
Protocol: Detection of apoptotic/necrotic stages of tumor cells was examined by Annexin V-FITC/PI apoptosis detection kit (MEBCYTO). Viable cells are negative for staining of either Annexin V or PI. Early apoptotic stage indicated with positive Annexin V and negative PI, whereas late-apoptotic and necrotic stages characterized by high PI signal.
FIGS. 3A-C present flow cytometry analysis of fibroblast cells treated with 10 μM of chimera 358 for 2 hours (FIG. 3A), 4 hours (FIG. 3B) and 8 hours (FIG. 3C), showing detection of apoptotic/necrotic stages of the cells.

A172 (glioblastoma) = experiment: XTT cell growth assay, A172; assay type: cell-based; settings: A172 cells; 5 to 25 μM
Protocol: as §2

[5] = Body weight monitoring, Experiment 2; assay type: in vivo, mice; settings: 5 mg group; IP 3 times a week
Protocol: (§3) In another experiment (Experiment 2), 13 human melanoma model mice were treated 3 times a week by IP injection with of Chimera 358 followed by 2 days of observation according to the following groups: 3 control mice received saline, 5 mice with 5 mg and 5 mice with 10 mg. The treatment was started two weeks after grafting, when tumor development has started.
FIG. 7 presents the results of the body weight monitoring of 13 mice that undergone the treatment described in Experiment 2.

benign fibroblasts = experiment: In vitro cytotoxicity on benign fibroblasts; assay type: cell-based
Protocol: as §2

[6] = test system: WM-266.4 human melanoma xenograft; experiment: Experiment 2: human melanoma model mice, IP injection 3 times a week; assay type: in vivo; settings: for WM-266.4 cell proliferation (tumor size) in vivo: IP 3 times a week
Protocol: as §3

[7] = test system: WM-266.4 human melanoma xenograft; experiment: Experiment 1: human melanoma model mice, daily IP injection for 7 days; assay type: in vivo
Protocol: as §1

[8] = test system: PC-3 (human prostate cancer); experiment: XTT cell growth assay, PC-3; assay type: cell-based; settings: PC-3 cells; 5 to 25 μM; 24 and 48 hours incubation
Protocol: as §2

## CN(C)CCN1C(=O)c2cccc3cc(NC(=O)CCCc4ccc(N(CCCl)CCCl)cc4)cc(c23)C1=O [Chimera 358, 4-(4-(bis(2-chloroethyl)amino)phenyl)-N-(2-(2-(dimethylamino)ethyl)-1,3-dioxo-2,3-dihydro-1H-benzo[de]isoquinolin-5-yl)butanamide]
[1]
  body weight: loss of body weight
[2]
  inhibition of cancer cell growth / cell viability (XTT): remarkable inhibition of cancer cell growth; also recorded: notable cell toxicity
[3]
  inhibition of cancer cell growth / cell viability (XTT): remarkable inhibition of cancer cell growth; also recorded: notable cell toxicity
[4]
  cell death (apoptotic/necrotic stages): moderate
A172 (glioblastoma)
  inhibition of cancer cell growth (XTT): remarkable inhibition of cancer cell growth
[5]
  body weight: maintained their body weight
Benign fibroblasts
  effect on benign fibroblasts: tolerable
[6]; 5 mg group
  WM-266.4 cell proliferation (tumor size) in vivo: kept growing
[6]; 10 mg group (5 mice), IP three times weekly
  survival: one mouse
[6]; 10 mg group
  WM-266.4 cell proliferation (tumor size) in vivo: grew to a much lesser extent
[7]; 10 mg group (5 mice), IP daily for 7 days
  survival: one mouse
[7]; 10 mg group, after four weeks of the treatment
  WM-266.4 cell proliferation (tumor size) in vivo: notable decrease in tumor size
[7]; mice receiving the treatment (25 mg, 10 mg) versus saline control
  WM-266.4 cell proliferation (tumor size) in vivo: grew to a much lesser extent
[8]
  inhibition of cancer cell growth / cell viability (XTT): remarkable inhibition of cancer cell growth; also recorded: notable cell toxicity
